Key:
Phytophthora infestans = assay: whole plant or invertebrate; format: in vivo; details: in Solanum lycopersicum, 96 h, read-out: Determination of control effect (preventive value)
[1] = system: Pseudoperonospora cubensis; assay: Test of examining control effect on Pseudoperonospora cubensis (potted cucumber plants); format: in vivo; details: 96 h, 10% wettable powder adjusted to 125 ppm, 15 ml/pot sprayed on potted cucumber plants one day before spray inoculation, assessed after 1 day wet chamber and 3 days greenhouse, read-out: Determination of control effect (preventive value) on Pseudoperonospora cubensis
Procedure, shortened: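 Cucumber plants (Sagamihanjiro, 2.5-leaf stage) sprayed with 125 ppm compound solution from 10% wettable powder, 15 ml/pot. One day later, spray-inoculated with P. cubensis conidia (1.0×10^4 cells/ml), kept 1 day at 21° C wet, then 3 days in greenhouse. Preventive value derived from lesion area relative to untreated plants.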

Sphaerotheca fuliginea = assay: Test of examining control effect on Sphaerotheca fuliginea (potted cucumber plants); format: in vivo; details: Podosphaera fuliginea, 336 h; 10% wettable powder adjusted to 125 ppm, 15 ml/pot sprayed on potted cucumber plants one day before spray inoculation; assessed after 14 days in greenhouse; read-out: Determination of control effect (preventive value) on Sphaerotheca fuliginea
Procedure, shortened: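 Cucumber plants (Sagamihanjiro, 2nd leaf stage) sprayed with 125 ppm compound (from 10% wettable powder), inoculated one day later with S. fuliginea conidia (1.0×10^5 cells/ml); lesion area scored after 14 days in greenhouse. Preventive value vs untreated; ≥60% high, <60% low control.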

O=[N+]([O-])c1cccc(C#CCCNc2ncnc3sccc23)c1 [compound 39]
melting point: 171 to 172 °C
pest or weed control at 125 ppm (Phytophthora infestans): 60 to 100%
pest or weed control at 125 µg/mL [1]: 60 to 100%

O=[N+]([O-])c1ccc(C#CCCNc2ncnc3sccc23)cc1 [compound 40]
melting point: 184 to 185 °C
pest or weed control at 125 ppm (Phytophthora infestans): 60 to 100%
pest or weed control at 125 µg/mL [1]: 60 to 100%

Fc1ccc(C#CCCNc2ncnc3sccc23)c(F)c1 [compound 41]
melting point: 177 to 178 °C
pest or weed control at 125 ppm (Phytophthora infestans): 60 to 100%
pest or weed control at 125 µg/mL [1]: 60 to 100%

Fc1cccc(F)c1C#CCCNc1ncnc2sccc12 [compound 42]
melting point: 179 to 181 °C
pest or weed control at 125 ppm (Phytophthora infestans): 60 to 100%
pest or weed control at 125 µg/mL [1]: 60 to 100%

Fc1cc(C#CCCNc2ncnc3sccc23)cc(F)c1F [compound 43]
melting point: 158 to 159 °C
pest or weed control at 125 ppm (Phytophthora infestans): 60 to 100%
pest or weed control at 125 µg/mL [1]: 60 to 100%

C(#Cc1cccnc1)CCNc1ncnc2sccc12 [compound 56]
melting point: 138 to 140 °C
pest or weed control at 125 ppm (Phytophthora infestans): 0 to 60%
pest or weed control at 125 µg/mL [1]: 60 to 100%

C(#Cc1csc(-c2ccco2)n1)CCNc1ncnc2sccc12 [compound 77]
melting point: 53 to 55 °C
pest or weed control at 125 µg/mL (Sphaerotheca fuliginea): 0 to 60%
pest or weed control at 125 ppm (Phytophthora infestans): 0 to 60%

CC(CC#Cc1ccc(Cl)cc1C(F)(F)F)Nc1ncnc2cc(F)ccc12 (stereo not drawn) [compound 344]
pest or weed control at 125 µg/mL (Sphaerotheca fuliginea): 60 to 100%
pest or weed control at 125 ppm (Phytophthora infestans): 0 to 60%
pest or weed control at 125 µg/mL [1]: 60 to 100%

CC(CC#Cc1ccc(Cl)cc1C(F)(F)F)Nc1ncnc2ccc(F)cc12 (stereo not drawn) [compound 345]
pest or weed control at 125 µg/mL (Sphaerotheca fuliginea): 60 to 100%
pest or weed control at 125 ppm (Phytophthora infestans): 0 to 60%
pest or weed control at 125 µg/mL [1]: 60 to 100%

CC(CC#Cc1ccc(Cl)cc1C(F)(F)F)Nc1ncnc2cccc(F)c12 (stereo not drawn) [compound 346]
pest or weed control at 125 µg/mL (Sphaerotheca fuliginea): 60 to 100%
pest or weed control at 125 ppm (Phytophthora infestans): 0 to 60%
pest or weed control at 125 µg/mL [1]: 60 to 100%

CC(CC#Cc1ccc(F)cc1C(F)(F)F)Nc1ncnc2cc(F)ccc12 (stereo not drawn) [compound 347]
pest or weed control at 125 µg/mL (Sphaerotheca fuliginea): 60 to 100%
pest or weed control at 125 ppm (Phytophthora infestans): 0 to 60%
pest or weed control at 125 µg/mL [1]: 60 to 100%

CC(CC#Cc1ccc(Cl)cc1C(F)(F)F)Nc1ncnc2c(Cl)cccc12 (stereo not drawn) [compound 349]
pest or weed control at 125 µg/mL (Sphaerotheca fuliginea): 60 to 100%
pest or weed control at 125 ppm (Phytophthora infestans): 0 to 60%
pest or weed control at 125 µg/mL [1]: 60 to 100%

CC(CC#Cc1ccc(Cl)cc1C(F)(F)F)Nc1ncnc2c(C(F)(F)F)cccc12 (stereo not drawn) [compound 351]
pest or weed control at 125 µg/mL (Sphaerotheca fuliginea): 60 to 100%
pest or weed control at 125 ppm (Phytophthora infestans): 0 to 60%
pest or weed control at 125 µg/mL [1]: 60 to 100%

COc1cccc2c(NC(C)CC#Cc3ccc(Cl)cc3C(F)(F)F)ncnc12 (stereo not drawn) [compound 352]
pest or weed control at 125 µg/mL (Sphaerotheca fuliginea): 60 to 100%
pest or weed control at 125 ppm (Phytophthora infestans): 0 to 60%
pest or weed control at 125 µg/mL [1]: 60 to 100%

COc1cccc2c(NC(C)CC#Cc3ccc(F)cc3C(F)(F)F)ncnc12 (stereo not drawn) [compound 353]
pest or weed control at 125 µg/mL (Sphaerotheca fuliginea): 60 to 100%
pest or weed control at 125 ppm (Phytophthora infestans): 0 to 60%
pest or weed control at 125 µg/mL [1]: 60 to 100%

Cc1cccc2c(NC(C)CC#Cc3ccc(Cl)cc3C(F)(F)F)ncnc12 (stereo not drawn) [compound 354]
pest or weed control at 125 µg/mL (Sphaerotheca fuliginea): 60 to 100%
pest or weed control at 125 ppm (Phytophthora infestans): 0 to 60%
pest or weed control at 125 µg/mL [1]: 60 to 100%

Cc1cc(NCCC#Cc2ccc(Cl)cc2C(F)(F)F)ncn1 [compound 359]
pest or weed control at 125 µg/mL (Sphaerotheca fuliginea): 0 to 60%
pest or weed control at 125 ppm (Phytophthora infestans): 0 to 60%
pest or weed control at 125 µg/mL [1]: 0 to 60%

Cc1ncnc(NCCC#Cc2ccc(Cl)cc2C(F)(F)F)c1Cl [compound 360]
pest or weed control at 125 µg/mL (Sphaerotheca fuliginea): 60 to 100%
pest or weed control at 125 ppm (Phytophthora infestans): 0 to 60%
pest or weed control at 125 µg/mL [1]: 60 to 100%

COCc1cc(C)ccc1C#CCCNc1ncnc(C)c1Cl [compound 361]
pest or weed control at 125 µg/mL (Sphaerotheca fuliginea): 60 to 100%
pest or weed control at 125 ppm (Phytophthora infestans): 60 to 100%
pest or weed control at 125 µg/mL [1]: 60 to 100%

COCc1ccccc1C#CCCNc1ncnc(C)c1Cl [compound 362]
pest or weed control at 125 µg/mL (Sphaerotheca fuliginea): 60 to 100%
pest or weed control at 125 ppm (Phytophthora infestans): 60 to 100%
pest or weed control at 125 µg/mL [1]: 60 to 100%

COCc1ccccc1C#CCCNc1ncnc(Cl)c1C [compound 363]
pest or weed control at 125 µg/mL (Sphaerotheca fuliginea): 60 to 100%
pest or weed control at 125 ppm (Phytophthora infestans): 60 to 100%
pest or weed control at 125 µg/mL [1]: 60 to 100%

Cc1c(Cl)ncnc1NCCC#Cc1ccccc1C(F)(F)F [compound 364]
pest or weed control at 125 µg/mL (Sphaerotheca fuliginea): 60 to 100%
pest or weed control at 125 ppm (Phytophthora infestans): 0 to 60%
pest or weed control at 125 µg/mL [1]: 60 to 100%

COCc1ccccc1C#CCCNc1ncnc(Cl)c1Cl [compound 365]
pest or weed control at 125 µg/mL (Sphaerotheca fuliginea): 60 to 100%
pest or weed control at 125 ppm (Phytophthora infestans): 60 to 100%
pest or weed control at 125 µg/mL [1]: 60 to 100%

COCc1ccccc1C#CCCNc1ncnc(Cl)c1Br [compound 366]
pest or weed control at 125 µg/mL (Sphaerotheca fuliginea): 60 to 100%
pest or weed control at 125 ppm (Phytophthora infestans): 60 to 100%
pest or weed control at 125 µg/mL [1]: 60 to 100%

FC(F)(F)c1ccccc1C#CCCNc1ncnc(Cl)c1Br [compound 367]
pest or weed control at 125 µg/mL (Sphaerotheca fuliginea): 60 to 100%
pest or weed control at 125 ppm (Phytophthora infestans): 0 to 60%
pest or weed control at 125 µg/mL [1]: 60 to 100%

Nc1c(Cl)ncnc1NCCC#Cc1ccccc1C(F)(F)F [compound 368]
pest or weed control at 125 µg/mL (Sphaerotheca fuliginea): 60 to 100%
pest or weed control at 125 ppm (Phytophthora infestans): 0 to 60%
pest or weed control at 125 µg/mL [1]: 60 to 100%

CS(=O)(=O)c1ncnc(NCCC#Cc2ccccc2C(F)(F)F)c1[N+](=O)[O-] [compound 369]
pest or weed control at 125 µg/mL (Sphaerotheca fuliginea): 0 to 60%
pest or weed control at 125 ppm (Phytophthora infestans): 0 to 60%
pest or weed control at 125 µg/mL [1]: 0 to 60%

O=[N+]([O-])c1c(Cl)ncnc1NCCC#Cc1ccccc1C(F)(F)F [compound 370]
pest or weed control at 125 µg/mL (Sphaerotheca fuliginea): 0 to 60%
pest or weed control at 125 ppm (Phytophthora infestans): 0 to 60%
pest or weed control at 125 µg/mL [1]: 0 to 60%

CSc1ncnc(NCCC#Cc2ccccc2C(F)(F)F)c1[N+](=O)[O-] [compound 371]
pest or weed control at 125 µg/mL (Sphaerotheca fuliginea): 0 to 60%
pest or weed control at 125 ppm (Phytophthora infestans): 0 to 60%
pest or weed control at 125 µg/mL [1]: 0 to 60%

Clc1ncnc(NCCC#Cc2ccccc2)c1-c1ccccc1 [compound 373]
pest or weed control at 125 µg/mL (Sphaerotheca fuliginea): 0 to 60%
pest or weed control at 125 ppm (Phytophthora infestans): 0 to 60%
pest or weed control at 125 µg/mL [1]: 0 to 60%

CC(F)c1ncnc(NCCC#Cc2ccccc2)c1I (stereo not drawn) [compound 374]
pest or weed control at 125 µg/mL (Sphaerotheca fuliginea): 60 to 100%
pest or weed control at 125 ppm (Phytophthora infestans): 0 to 60%
pest or weed control at 125 µg/mL [1]: 60 to 100%

CC(F)c1ncnc(NCCC#Cc2ccccc2)c1Br (stereo not drawn) [compound 375]
pest or weed control at 125 µg/mL (Sphaerotheca fuliginea): 60 to 100%
pest or weed control at 125 ppm (Phytophthora infestans): 60 to 100%
pest or weed control at 125 µg/mL [1]: 60 to 100%

C(#Cc1ccccc1)CCNc1ncnc2[nH]ccc12 [compound 379]
pest or weed control at 125 µg/mL (Sphaerotheca fuliginea): 60 to 100%
pest or weed control at 125 ppm (Phytophthora infestans): 0 to 60%
pest or weed control at 125 µg/mL [1]: 0 to 60%

COCc1ccccc1C#CCCNc1ncnc2ncccc12 [compound 380]
pest or weed control at 125 µg/mL (Sphaerotheca fuliginea): 60 to 100%
pest or weed control at 125 ppm (Phytophthora infestans): 60 to 100%
pest or weed control at 125 µg/mL [1]: 60 to 100%

CC(CC#Cc1ccccc1)Nc1ncnc(C(C)F)c1I (stereo not drawn) [compound 381]
pest or weed control at 125 µg/mL (Sphaerotheca fuliginea): 60 to 100%
pest or weed control at 125 ppm (Phytophthora infestans): 60 to 100%
pest or weed control at 125 µg/mL [1]: 60 to 100%

CC(CC#Cc1ccc(Cl)cc1C(F)(F)F)Nc1ncnc(C(C)Cl)c1Cl (stereo not drawn) [compound 383]
pest or weed control at 125 µg/mL (Sphaerotheca fuliginea): 60 to 100%
pest or weed control at 125 ppm (Phytophthora infestans): 0 to 60%
pest or weed control at 125 µg/mL [1]: 60 to 100%

Cc1ncnc(NC(C)CC#Cc2ccc(Cl)cc2C(F)(F)F)c1I (stereo not drawn) [compound 386]
pest or weed control at 125 µg/mL (Sphaerotheca fuliginea): 60 to 100%
pest or weed control at 125 ppm (Phytophthora infestans): 0 to 60%
pest or weed control at 125 µg/mL [1]: 60 to 100%

Cc1ncnc(NC(C)CC#Cc2ccc(Cl)cc2C(F)(F)F)c1Br (stereo not drawn) [compound 387]
pest or weed control at 125 µg/mL (Sphaerotheca fuliginea): 60 to 100%
pest or weed control at 125 ppm (Phytophthora infestans): 0 to 60%
pest or weed control at 125 µg/mL [1]: 60 to 100%

CC(CC#Cc1ccc(Cl)cc1C(F)(F)F)Nc1ncnc(C(F)(F)F)c1Cl (stereo not drawn) [compound 388]
pest or weed control at 125 µg/mL (Sphaerotheca fuliginea): 60 to 100%
pest or weed control at 125 ppm (Phytophthora infestans): 0 to 60%
pest or weed control at 125 µg/mL [1]: 60 to 100%

Cc1ncnc(NC(C)CC#Cc2ccccc2)c1Cl (stereo not drawn) [compound 389]
pest or weed control at 125 µg/mL (Sphaerotheca fuliginea): 60 to 100%
pest or weed control at 125 ppm (Phytophthora infestans): 0 to 60%
pest or weed control at 125 µg/mL [1]: 60 to 100%

Reference: US8586505B2 (SDS Biotech K. K., priority 2009, dated 2013)
